# How the values were obtained:
# [1] = system: human spermatozoids; test: Measurement of intracellular calcium in human spermatozoids (Fura2-AM fluorescence); type: cell-based
# Procedure: The human sperm originated from healthy donors. […] The mobile spermatozoids were incubated for a minimum of 2 hours in the BWW/HSA capacitating medium and were then incubated at a concentration of 5-10×10^6/ml with Fura2-AM to a final concentration 2 μM at 37° C. for 45 minutes. After washing by centrifugation at 600 g for 10 minutes in. BWW without HSA, the spermatozoids were suspended at a concentration of 4×10^6/ml. The florescence signal was measured at 37° C. using a spectrofluorimeter at excitation wave lengths of 340 and 380 nm (PTIM 2001-Kontron) or at 340, 360 and 380 nm (Hitachi F 2000—B. Braun Science Tec.). The fluorescence emission was recorded at 505 nm. The progesterone or the products to be tested, dissolved in absolute ethanol, were added to the incubation medium at a final concentration of 0.1% of ethanol. When an antagonistic effect of the progesterone was sought, the product was added to the medium 2 minutes before the progesterone. At the end of the each dosage, 5 μM of ionomycin were added to the sample to measure the maximum fluorescence signal. […] These values allowed the intracellular concentration of calcium ([Ca^2+]i) to be calculated by the method described by Grunkiewicz et al. 1985, J. Biol. Chem., Vol. 260, pp. 3440-3450).
# [2] = system: Sigma receptor; test: Sigma receptor relative bond affinity (RBA), 3H PPP displacement, rat brain membranes; type: binding; conditions: for Relative bond affinity (RBA) for the Sigma receptor, Brain (rat): 3 nM 3H PPP, haloperidol set equal to 100; for Displacement of 3H PPP from the Sigma receptor (in words): also evaluated on testicles
# Procedure: (§1) The relative bond affinity was evaluated for preparations of rat brain and testicle membranes.
# (§2) Male Sprague-Dawley rats originating from Iffa Credo and weighing approximately 200 g were used. The animals were scarified by decapitation and the brain and testicles were removed and homogenized in 10 to 25 volumes of 50 mM Tris-HCl buffer (pH 7.7) at 4° C. using an Ultrathurax. The homogenates were centrigued at 30,000 g for 15 minutes at 4° C. and the pellets were washed 3 times by resuspension in the same buffer and centrifugation under the same conditions. The membranes obtained in this way were stored at −80° C.
# (§3) The marker of the sigma receptors used was ^3H PPP (propyl-3-(propyl-3-(3-hydroxyphenyl)-piperidine) of NEN having a specific activity of 3404 GBq/mmol. The membranes were suspended in the 50 mM Tris-HCl buffer, pH 8.0 to obtain a concentration of proteins of approximately 0.6 mg/ml for the testicles and 1 mg/ml for the brain. Aliquots of the homogenate were incubated for 90 minutes at 25° C. in a total volume of 0.5 ml with 3 nM of ^3H PPP in the presence of increasing concentrations of reference product (haloperidol) or of the products to be tested. At the end of the incubation, the 3H PPP bound to the membranes was separated from the free ^3H PPP by rapid filtration on Whatman GF/C filters pre-treated beforehand with 0.05% of polyethyleneimine. The precipitate was washed twice with 5 ml of Tris-HCl buffer and the radioactivity was counted after the addition of 20 ml of Aqualyte scintillating liquid (Baker).
# (§4) The following two curves were drawn: percentage of bound tritiated marker 100×B/BO as a function of the logarithm of the concentration of unlabelled reference product or as a function of the logarithm of the concentration of unlabelled test product. The straight line of the following equation was determined:
# (§5) BO=concentration of the bound tritiated marker in the absence of any unlabelled product.
# B=concentration of the bound tritiated marker in the presence of a concentration X of unlabelled product.
# Bmin=concentration of the bound tritiated marker in the presence of a large excess of the unlabelled reference product (5,000 nM).
# The intersections of the straight line I50 and the curves allowed the evaluation of the concentrations of the unlabelled reference product (CH) and of the unlabelled test product (CX) which inhibited by 50% the specific binding of the tritiated marker on the receptor. The relative bond affinity (RBA) of the test product was determined by the equation:
# The RBA of the haloperidol was arbitrarily set equal to 100.
# [3] = system: Sigma receptor; test: Sigma receptor relative bond affinity (RBA), 3H PPP displacement, rat testicle membranes; type: binding; conditions: 3 nM 3H PPP, haloperidol set equal to 100
# Procedure: as §1, §2, §3, §4, §5
# B=concentration of the bound tritiated marker in the presence of a concentration X of unlabelled product. […]
smiles,measurement,setting,value
"CC(=O)[C@H]1CC[C@H]2[C@@H]3CCC4=CC(=O)CC[C@]4(C)[C@H]3CC[C@]12C [Progesterone, reference compound]",[Ca2+]i relative to the basal level set equal to 1,"[1]; PROG. 10^-5M alone, Mean±SEM n=3",3.67 ± 0.97
same,[Ca2+]i relative to the basal level set equal to 1,"[1]; PROG. 10^-5M alone, Mean±SEM n=8",5.76 ± 0.84
same,Effect on the intracellular calcium of human spermatozoids (in words),[1]; progesterone 10^-5 M alone,induced a transitory increase of the [Ca^2+]i
same,"Relative bond affinity (RBA) for the Sigma receptor, Brain (rat)",[2],0.7
same,Displacement of 3H PPP from the Sigma receptor (in words),[2],capable of displacing ^3H PPP
same,"Relative bond affinity (RBA) for the Sigma receptor, Testicle (rat)",[3],0.3
O=C(CCCN1CCC(O)(c2ccc(Cl)cc2)CC1)c1ccc(F)cc1 [Haloperidol],"Relative bond affinity (RBA) for the Sigma receptor, Brain (rat)",[2],100.0
same,"Relative bond affinity (RBA) for the Sigma receptor, Testicle (rat)",[3],100.0
"C[C@H](NCCN(C)C)[C@@H]1CC[C@@H]2[C@H]3CCc4cc(O)ccc4[C@@H]3CC[C@]21C [Example 1, (20S)(8α,9β,13α,14β,17α) 20-((dimethylamino)-ethyl)-amino-19-nor-Δ^1,3,5(10)-pregnatrien-3-ol]",[Ca2+]i relative to the basal level set equal to 1,"[1]; 2 minutes pre-treatment with U 10^-5M + PROG. 10^-5M, Mean±SEM n=3",1.0 ± 0.0
same,[Ca2+]i relative to the basal level set equal to 1,"[1]; 2 minutes pre-treatment with U 10^-6M + PROG. 10^-5M, Mean±SEM n=3",2.63 ± 0.57
same,[Ca2+]i relative to the basal level set equal to 1,"[1]; 2 minutes pre-treatment with U 10^-7M + PROG. 10^-5M, Mean±SEM n=3",4.26 ± 1.93
same,[Ca2+]i relative to the basal level set equal to 1,"[1]; 2 minutes pre-treatment with U 10^-8M + PROG. 10^-5M, Mean±SEM n=3",3.33 ± 0.87
same,[Ca2+]i relative to the basal level set equal to 1,"[1]; Pre-treatment 2 mn with U 10^-5M + PROG. 10^-5M, Mean±SEM n=8",0.95 ± 0.05
same,Antagonistic effect on the progesterone-induced [Ca2+]i increase (in words),[1]; Product U 10^-5M added 2 minutes before the progesterone,completely antagonized the effect of progesterone
same,[Ca2+]i relative to the basal level set equal to 1,"[1]; U 10^-5M alone, Mean±SEM n=8",0.95 ± 0.05
same,"Relative bond affinity (RBA) for the Sigma receptor, Brain (rat)",[2],4.3
same,Displacement of 3H PPP from the Sigma receptor (in words),[2],capable of displacing ^3H PPP
same,"Relative bond affinity (RBA) for the Sigma receptor, Testicle (rat)",[3],58.0

# — patent US6437157B1, “20-substituted steroids” (Hoechst Marion Roussel, priority 1994, dated 2002)
